Where two headings read alike, the source gives them in different places.
What was measured:
[1] = target: T1, MOR (Homo sapiens, UniProt P35372); assay: PDSP radioligand binding at MOR; conditions: 1.5 h
T1 construct: purchased NIMH Psychoactive Drug Screening Program (PDSP)
From the text: Opioid receptors are a family of inhibitory G-coupled protein receptors where opioids act as the ligand. The kappa opioid receptors (KOR), µ and δ opioid receptors (MOR and DOR), and nociception opioid receptor (NOP) fall under the family of opioids receptors. It has been reported that oxadiazole imidazodiazepines can mediate analgesic and anti-inflammatory properties mediated also by the κ opioid receptor (KOR). The binding at KOR is usually silent. The affinities of the test compounds for KOR, DOR, and MOR were determined using radioligand binding assays at a screening concentration of 10,000 nM in collaboration with the National Institute of Mental Health’s Psychoactive Drug Screening Program (PDSP), as mentioned before. Concentration-dependent experiments were conducted to determine Ki values for the compounds that exceeded more than 50% radioligand displacement in primary binding assays.
(§1) The NIMH PDSP assay protocol book [https://kidbdev.med.unc.edu/databases/PDSP%20Protocols%20II%202013-03-28.pdf accessed on 23 April 2023]. describes the protocols for primary and secondary radio-ligand binding assays. These assays were carried out in a final volume of 125 µL per well in the appropriate binding buffer.
(§2) The binding of a ligand to a receptor, ion channel, or transporter was determined in the […] of 10 µM of the appropriate reference compound. […] Plates were incubated in the dark for 90 min at rt, and the reactions were stopped by vacuum filtration onto 0.3% polyethyleneimine (PEI) soaked 96-well filter mats using a 96-well Filtermateharvester. This was followed by three washes with cold PBS buffer. Radioactivity was then counted on a Microbeta counter. Nonlinear regression was used to analyze the data with N = 6 replicates.

[2] = target: T2, A1 (Homo sapiens, UniProt P30542); assay: PDSP primary binding A1; conditions: 1.5 h; primary binding, 10,000 nM; last figure of the line = mean of the 4 before it; read-out: A1, PDSP raw data, mean
T2 construct: purchased NIMH Psychoactive Drug Screening Program (PDSP)
T2 sequence (P30542 1-326): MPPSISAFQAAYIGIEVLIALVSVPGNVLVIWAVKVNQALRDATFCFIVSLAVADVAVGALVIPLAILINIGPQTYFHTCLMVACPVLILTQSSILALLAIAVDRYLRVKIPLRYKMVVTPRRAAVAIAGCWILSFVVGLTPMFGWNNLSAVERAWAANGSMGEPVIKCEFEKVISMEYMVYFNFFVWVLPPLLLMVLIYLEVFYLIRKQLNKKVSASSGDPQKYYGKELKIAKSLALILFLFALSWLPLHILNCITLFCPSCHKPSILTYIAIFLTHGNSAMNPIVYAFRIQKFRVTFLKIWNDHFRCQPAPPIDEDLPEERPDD
Protocol: (§3) To determine if any off-target receptor-binding effects are present, all the novel ligands were sent to the National Institute of Mental Health (NIMH), Psychoactive Drug Screening Program (PDSP). The ligands were screened over a panel of 47 receptors, ion channels, and transporters to determine any other possible interactions with […]. The hERG-binding was also determined. […] No binding of the test compounds to calcium channels was observed. […] It is necessary to screen the compounds for hERG-binding during the early process of drug discovery. The unintentional binding of many drugs to hERG can cause blockade of hERG K+ channels in the heart, which can cause many side effects including cardiac arrhythmias and sudden death. […] All of the α5 imidazodiazepines were tested for hERG-binding.
as §1, §2

[3] = target: T3, 5-HT2B (Homo sapiens, UniProt P41595); assay: PDSP primary binding 5-HT2B; conditions: 1.5 h; primary binding, 10,000 nM; last figure of the line = mean of the 4 before it; read-out: 5-HT2B, PDSP raw data, mean
T3 construct: purchased NIMH Psychoactive Drug Screening Program (PDSP)
Protocol: as §3, §1, §2

[4] = target: T4, D2 (Homo sapiens, UniProt P14416); assay: PDSP primary binding D2; conditions: 1.5 h; primary binding, 10,000 nM; last figure of the line = mean of the 4 before it; read-out: D2, PDSP raw data, mean
T4 construct: purchased NIMH Psychoactive Drug Screening Program (PDSP)
Protocol: as §3, §1, §2

[5] = target: T5, M5 (Homo sapiens, UniProt P08912); assay: PDSP primary binding M5; conditions: primary binding, 10,000 nM; last figure of the line = mean of the 4 before it; read-out: M5, PDSP raw data, mean
T5 construct: purchased NIMH Psychoactive Drug Screening Program (PDSP)
T5 sequence (P08912 1-532): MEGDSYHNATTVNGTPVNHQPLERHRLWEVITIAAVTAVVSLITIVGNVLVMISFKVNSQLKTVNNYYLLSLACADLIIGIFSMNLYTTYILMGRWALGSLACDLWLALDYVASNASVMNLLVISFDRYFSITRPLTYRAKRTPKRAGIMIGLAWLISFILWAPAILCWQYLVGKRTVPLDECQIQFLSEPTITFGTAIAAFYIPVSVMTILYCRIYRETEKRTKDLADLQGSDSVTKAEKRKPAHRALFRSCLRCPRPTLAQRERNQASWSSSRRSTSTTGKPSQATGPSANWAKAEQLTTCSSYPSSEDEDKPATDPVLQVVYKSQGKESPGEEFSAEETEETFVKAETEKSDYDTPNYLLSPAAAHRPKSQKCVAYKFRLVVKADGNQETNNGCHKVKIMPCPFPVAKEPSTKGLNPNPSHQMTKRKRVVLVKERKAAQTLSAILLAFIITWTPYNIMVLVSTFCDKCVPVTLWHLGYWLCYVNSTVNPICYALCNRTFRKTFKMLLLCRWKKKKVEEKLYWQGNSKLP
Protocol: as §3, §1, §2

[6] = target: T6, Alpha2C (Homo sapiens, UniProt P18825); assay: PDSP primary binding Alpha2C; conditions: 1.5 h; primary binding, 10,000 nM; last figure of the line = mean of the 4 before it; read-out: Alpha2C, PDSP raw data, mean
T6 construct: purchased NIMH Psychoactive Drug Screening Program (PDSP)
T6 sequence (P18825 1-462): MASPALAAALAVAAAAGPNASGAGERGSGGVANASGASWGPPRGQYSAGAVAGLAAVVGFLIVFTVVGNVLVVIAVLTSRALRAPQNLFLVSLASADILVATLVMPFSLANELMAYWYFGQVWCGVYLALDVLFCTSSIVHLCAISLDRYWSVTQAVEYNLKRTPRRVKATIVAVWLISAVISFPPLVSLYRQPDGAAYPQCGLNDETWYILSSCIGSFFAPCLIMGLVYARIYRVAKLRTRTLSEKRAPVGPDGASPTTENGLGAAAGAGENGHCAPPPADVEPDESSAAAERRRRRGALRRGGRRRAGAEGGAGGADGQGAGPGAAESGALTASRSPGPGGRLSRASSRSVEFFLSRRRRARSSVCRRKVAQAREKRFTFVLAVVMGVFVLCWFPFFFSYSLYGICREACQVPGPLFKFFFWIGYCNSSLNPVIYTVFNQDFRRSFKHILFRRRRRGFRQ
Protocol: as §3, §1, §2

[7] = at 10,000 nM, N = 5, [3H]-DAMGO 1.20 nM, read-out: Primary Binding %MOR
[8] = primary binding, 10,000 nM, last figure of the line = mean of the 4 before it, read-out: MOR, PDSP raw data, mean

T4 sequence (P14416 whole entry): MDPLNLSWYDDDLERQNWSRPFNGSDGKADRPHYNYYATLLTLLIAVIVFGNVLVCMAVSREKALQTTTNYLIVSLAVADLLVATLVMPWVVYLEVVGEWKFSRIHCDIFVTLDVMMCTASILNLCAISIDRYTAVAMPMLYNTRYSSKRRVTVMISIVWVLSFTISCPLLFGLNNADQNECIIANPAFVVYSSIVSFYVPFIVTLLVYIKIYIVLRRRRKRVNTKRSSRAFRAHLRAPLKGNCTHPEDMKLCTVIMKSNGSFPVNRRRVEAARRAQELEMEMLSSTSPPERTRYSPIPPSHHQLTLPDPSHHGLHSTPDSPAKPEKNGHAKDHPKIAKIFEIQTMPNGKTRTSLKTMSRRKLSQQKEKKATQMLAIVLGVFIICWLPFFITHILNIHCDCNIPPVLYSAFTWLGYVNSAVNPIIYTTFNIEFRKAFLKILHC
T1 sequence (P35372 whole entry): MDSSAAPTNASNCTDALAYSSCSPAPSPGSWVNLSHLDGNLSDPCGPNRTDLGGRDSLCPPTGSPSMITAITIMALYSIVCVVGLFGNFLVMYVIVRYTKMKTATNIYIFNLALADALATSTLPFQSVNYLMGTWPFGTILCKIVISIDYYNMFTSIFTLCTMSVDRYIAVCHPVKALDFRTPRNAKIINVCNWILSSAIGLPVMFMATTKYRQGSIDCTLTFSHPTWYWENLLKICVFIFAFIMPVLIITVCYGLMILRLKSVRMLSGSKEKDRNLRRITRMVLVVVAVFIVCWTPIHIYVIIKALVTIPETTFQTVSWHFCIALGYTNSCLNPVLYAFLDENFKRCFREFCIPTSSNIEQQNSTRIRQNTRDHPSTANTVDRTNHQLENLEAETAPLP
T3 sequence (P41595 whole entry): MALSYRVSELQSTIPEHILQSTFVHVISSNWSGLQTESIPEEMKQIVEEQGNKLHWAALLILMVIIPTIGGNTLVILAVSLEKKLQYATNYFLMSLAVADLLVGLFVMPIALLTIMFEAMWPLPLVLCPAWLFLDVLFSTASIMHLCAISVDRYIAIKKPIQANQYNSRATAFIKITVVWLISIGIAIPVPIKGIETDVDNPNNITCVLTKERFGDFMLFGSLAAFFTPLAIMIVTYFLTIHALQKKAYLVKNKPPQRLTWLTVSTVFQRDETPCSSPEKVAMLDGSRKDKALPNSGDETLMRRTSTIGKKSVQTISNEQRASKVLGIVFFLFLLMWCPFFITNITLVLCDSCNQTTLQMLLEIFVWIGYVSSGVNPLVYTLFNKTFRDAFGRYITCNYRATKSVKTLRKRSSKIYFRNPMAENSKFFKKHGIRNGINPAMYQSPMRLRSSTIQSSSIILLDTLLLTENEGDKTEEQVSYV

| SMILES | inhibition at 10 µM [1, 7] [%] | inhibition at 10 µM [1, 8] [%] | inhibition at 10 µM [2] [%] | inhibition at 10 µM [3] [%] | inhibition at 10 µM [4] [%] | inhibition at 10 µM [5] [%] | inhibition at 10 µM [6] [%] |
| --- | --- | --- | --- | --- | --- | --- | --- |
| C[C@H]1N=C(c2ccccc2F)c2cc(-c3ccccc3)ccc2-n2cnc(C(=O)N(C)C)c21 [Compound 5, (R)-6-(2′-Fluorophenyl)-N,N,4-trimethyl-8-phenyl-4H-benzo[f]imidazo[1,5-a][1,4]diazepine-3-carboxamide] | -11.2 ± 5.72 | -11.2 | 25.9 | 26.5 | 0.27 | -0.76 | 12.9 |
| C#Cc1ccc2c(c1)C(c1ccccc1Cl)=N[C@H](C)c1c(C(=O)NC)ncn1-2 [Compound 21, (R)-6-(2′-Chlorophenyl)-8-ethynyl-N,4-dimethyl-4H-benzo[f]imidazo[1,5-a][1,4]diazepine-3-carboxamide] | -3.57 ± 7.68 | -3.57 | -13.3 | -5.07 | -4.19 | -8.03 | -1.39 |
| C#Cc1ccc2c(c1)C(c1ccccn1)=N[C@@H](C)c1c(C(=O)NC)ncn1-2 [Compound 23, (S)-8-Ethynyl-N,4-dimethyl-6-(pyridin-2′-yl)-4H-benzo[f]imidazo[1,5-a][1,4]diazepine-3-carboxamide] | 5.24 ± 10.7 | 5.24 | 10.4 | -3.33 | -4.79 | -13.6 | -0.12 |
| C#Cc1ccc2c(c1)C(c1ccccc1Cl)=N[C@H](C)c1c(C(=O)N(C)CC)ncn1-2 [Compound 29] | 7.31 ± 9.54 | 7.31 | -6.38 | 30 | -1.58 | -17.5 | 19.9 |
| C#Cc1ccc2c(c1)C(c1ccccn1)=N[C@@H](C)c1c(C(=O)N(C)C)ncn1-2 [Compound 31, (S)-8-Ethynyl-N,N,4-trimethyl-6-(pyridin-2′-yl)-4H-benzo[f]imidazo[1,5-a][1,4]diazepine-3-carboxamide] | 4.55 ± 12.5 | 4.55 | 32.2 | -3.38 | 3.47 | -11.8 | 7.52 |
| C#Cc1ccc2c(c1)C(c1ccccc1F)=N[C@H](C)c1c(C(=S)N(C)C)ncn1-2 [Compound 33, (R)-8-Ethynyl-6-(2′-fluorophenyl)-N,N,4-trimethyl-4H-benzo[f]imidazo[1,5-a][1,4]diazepine-3-carbothioamide] | -2.4 ± 5.72 | -11.2 | 25.9 | 26.5 | 0.27 | -0.76 | 12.9 |
| CCc1noc(-c2ncn3c2[C@@H](C)N=C(c2ccccc2F)c2cc(-c4ccccc4)ccc2-3)n1 [Compound 35, (R)-3-Ethyl-5-(6-(2′-fluorophenyl)-4-methyl-8-phenyl-4H-benzo[f]imidazo[1,5-a][1,4]diazepin-3-yl)-1,2,4-oxadiazole] | 14.8 ± 6.32 | 14.8 | 27.1 | 13.8 | 7.47 | -7.39 | 31.6 |
| CCc1noc(-c2ncn3c2[C@@H](C)N=C(c2ccccc2F)c2cc(Cl)ccc2-3)n1 [Compound 36, (R)-5-(8-Chloro-6-(2′-fluorophenyl)-4-methyl-4H-benzo[f]imidazo[1,5-a][1,4]diazepin-3-yl)-3-ethyl-1,2,4-oxadiazole] | 19.2 ± 5.47 | 19.2 | 67.9 | 3.47 | 3.17 | -10.7 | 1.43 |
| CC(C)c1noc(-c2ncn3c2[C@@H](C)N=C(c2ccccc2F)c2cc(Cl)ccc2-3)n1 [Compound 37, (R)-5-(8-Chloro-6-(2′-fluorophenyl)-4-methyl-4H-benzo[f]imidazo[1,5-a][1,4]diazepin-3-yl)-3-isopropyl-1,2,4-oxadiazole] | 48.6 ± 4.17 | 48.6 | 52.2 | 8.56 | 18.2 | -4.88 | 2.74 |
| C[C@H]1N=C(c2ccccc2F)c2cc(Cl)ccc2-n2cnc(-c3nc(C4CC4)no3)c21 [Compound 38, (R)-5-(8-Chloro-6-(2′-fluorophenyl)-4-methyl-4H-benzo[f]imidazo[1,5-a][1,4]diazepin-3-yl)-3-cyclopropyl-1,2,4-oxadiazole] | 30.2 ± 6.46 | 30.2 | 55.5 | 10 | 21.8 | -5.18 | 9.93 |
| CCc1noc(-c2ncn3c2CN=C(c2ccccc2F)c2cc(C4CC4)ccc2-3)n1 [Compound 44, 5-(8-Cyclopropyl-6-(2′-fluorophenyl)-4H-benzo[f]imidazo[1,5-a][1,4]diazepin-3-yl)-3-ethyl-1,2,4-oxadiazole] | 26.4 ± 6.01 | 26.4 | 48.2 | 18.5 | 0.67 | -14.1 | 15.7 |

From publication PMC10303271, “Synthesis and Receptor Binding Studies of α5 GABAAR Selective Novel Imidazodiazepines Targeted for Psychiatric and Cognitive Disorders” (Molecules, 2023)
